Where “and” joins values, the source holds several entries; their conditions need not be identical. Identical values can stand only once.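 Five compound concentrations were applied to cells in 96-well plates for 48 hours; endpoints were derived by simple linear interpolation of the resulting dose-response curve. GI50 = concentration required for 50% inhibition of growth. TGI: total growth inhibition.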

Test systems include HS 578T breast; M14 melanoma; NCI-H23 lung; NCI-H460 lung; NCI-H522 lung; RXF 393 renal; SW-620 colon; UACC-62 melanoma; A549 NSCLC; EKVX NSCLC.
Test in all cases: growth of human tumour cells (NCI), 48 h

Regarding `O=C(CN1CCN(c2cc3c(cc2F)c(=O)c(C(=O)O)cn3C2CC2)CC1)Nc1ccc(C(=O)/C=C/c2ccccc2)cc1`, the GI50 is 4990 nM in the assay on HS 578T breast; 5220 nM in the assay with M14 melanoma; 2480 nM with NCI-H23 lung; 3170 nM in the assay with NCI-H460 lung; 1700 nM with NCI-H522 lung; 2500 nM in the assay on RXF 393 renal. In addition, the GI50 with SW-620 colon is 3800 nM; with UACC-62 melanoma, 3710 nM. The TGI in the assay on HS 578T breast is greater than 100000 nM; with M14 melanoma, greater than 100000 nM; in the assay with NCI-H23 lung it was 14300 nM; with NCI-H460 lung, greater than 100000 nM; in the assay with NCI-H522 lung it was 7780 nM; with RXF 393 renal it was greater than 100000 nM. Moreover, the TGI with SW-620 colon and with UACC-62 melanoma was greater than 100000 nM in each case.

In the case of `Cc1cccc(Cc2cnc(NC(=O)/C=C/c3ccco3)s2)c1`, the GI50 in the assay with A549 NSCLC was 59.1 nM; in the assay on EKVX NSCLC, 58.1 nM; in the assay with HS 578T breast, 31.3 nM; in the assay on M14 melanoma it was 31 nM; with NCI-H23 lung, 108 nM; with NCI-H460 lung, 35.9 nM. For the same molecule, the GI50 in the assay on RXF 393 renal is 22.1 nM; in the assay on SW-620 colon, 38.5 nM; with UACC-62 melanoma it was 54.2 nM. For the same molecule, the TGI with A549 NSCLC, with EKVX NSCLC, with HS 578T breast, in the assay with M14 melanoma, in the assay with NCI-H23 lung and in the assay with NCI-H460 lung was greater than 100000 nM throughout. For the same molecule, the TGI with RXF 393 renal was 64.3 nM; in the assay on SW-620 colon it was greater than 100000 nM; in the assay on UACC-62 melanoma, greater than 100000 nM.

As for `O=C(O)c1ccccc1/C=C1/Nc2ccccc2C1=O`, the TGI in the assay on A549 NSCLC, in the assay on EKVX NSCLC, in the assay with HS 578T breast, in the assay with M14 melanoma, in the assay with NCI-H23 lung and in the assay on NCI-H460 lung was greater than 100000 nM throughout. The TGI in the assay on RXF 393 renal, in the assay on SW-620 colon and with UACC-62 melanoma was greater than 100000 nM in each case.

With `Cn1cc(C2=C(c3cn(C)c4cc(Cl)ccc34)C(=O)NC2=O)c2ccccc21`, the GI50 in the assay with A549 NSCLC was 115 nM; in the assay with HS 578T breast, 73.1 nM; in the assay with M14 melanoma it was 87.9 nM; in the assay with NCI-H23 lung, 106 nM; with NCI-H460 lung, 96.1 nM; in the assay with NCI-H522 lung it was 72.3 nM. Further, the figures for the GI50 with SW-620 colon and with UACC-62 melanoma were 100 nM and 98.1 nM, respectively. Moreover, the TGI is greater than 25000 nM in the assay on A549 NSCLC; 1930 nM in the assay with HS 578T breast; greater than 25000 nM in the assay on M14 melanoma; 9100 nM in the assay on NCI-H23 lung; greater than 8900 nM in the assay with NCI-H460 lung; 345 nM with NCI-H522 lung. The TGI in the assay on SW-620 colon and in the assay with UACC-62 melanoma was greater than 25000 nM in each case.

Regarding `C/C(CC(=O)Nc1cc(Cl)c(Cl)cc1Cl)=N\NS(=O)(=O)c1ccc(C)cc1`, the TGI in the assay on A549 NSCLC is greater than 100000 nM; in the assay on EKVX NSCLC it was greater than 100000 nM; with M14 melanoma, 91400 nM; in the assay on NCI-H23 lung, 54600 nM; with NCI-H460 lung, greater than 100000 nM; in the assay on NCI-H522 lung, 41800 nM. The TGI is 82700 nM in the assay with RXF 393 renal, greater than 100000 nM in the assay on SW-620 colon and 75900 nM in the assay with UACC-62 melanoma.

With `CCC[CH2][Sn]1([CH2]CCC)[O]N=Cc2ccccc2[O]1`, the GI50 is 1840 nM in the assay with A549 NSCLC; 1110 nM in the assay on EKVX NSCLC; 780 nM with M14 melanoma; 413 nM in the assay with NCI-H23 lung; 1440 nM in the assay on NCI-H460 lung; 102 nM with NCI-H522 lung. Moreover, the GI50 in the assay on RXF 393 renal is 224 nM; with SW-620 colon, 241 nM; in the assay with UACC-62 melanoma, 413 nM. The TGI in the assay with A549 NSCLC was determined as 3800 nM; in the assay on EKVX NSCLC, 2390 nM; with M14 melanoma, 2090 nM; in the assay on NCI-H23 lung, 1680 nM; in the assay on NCI-H460 lung, 2760 nM; in the assay on NCI-H522 lung it was 229 nM. The TGI was found to be 1050 nM with RXF 393 renal, 1110 nM with SW-620 colon and 1700 nM with UACC-62 melanoma.

Take `COc1ccc2nc(NC(=O)C(=O)C(C#N)c3ccc(CC#N)cc3)sc2c1` (configuration not stated): the TGI in the assay with A549 NSCLC, in the assay on EKVX NSCLC, in the assay with M14 melanoma, in the assay with NCI-H23 lung, in the assay on NCI-H460 lung and in the assay on NCI-H522 lung was greater than 100000 nM each time. Moreover, the TGI in the assay on RXF 393 renal, in the assay on SW-620 colon and in the assay with UACC-62 melanoma was greater than 100000 nM throughout.

Regarding `COc1ccc(CN[C@H]2CCc3cc(OC)c(OC)c(OC)c3-c3ccc(SC)c(=O)cc32)c(OC)c1OC`, the GI50 in the assay with A549 NSCLC is 25.1 nM; in the assay with M14 melanoma it was 10.2 nM; with NCI-H23 lung, less than 10 nM; in the assay with SW-620 colon, less than 10 nM. In addition, the TGI with A549 NSCLC is greater than 100000 nM; in the assay with EKVX NSCLC it was greater than 100000 nM; in the assay on NCI-H23 lung it was 58 nM and 39.6 nM; in the assay with NCI-H460 lung it was 76.7 nM; with NCI-H522 lung, 49.5 nM; in the assay on RXF 393 renal it was 49.7 nM. The TGI with SW-620 colon was greater than 100000 nM; in the assay on UACC-62 melanoma, 19100 nM.

As for `CCc1cc2c(c3[nH]ccc13)[C@@H](C)C[C@H]2C`, the TGI in the assay with A549 NSCLC amounted to 42200 nM; in the assay with EKVX NSCLC it was 44600 nM; with M14 melanoma it was 34400 nM; in the assay on NCI-H23 lung, 37800 nM; in the assay with NCI-H460 lung, 29400 nM; in the assay with NCI-H522 lung, 31900 nM. In addition, the values for the TGI in the assay with RXF 393 renal, in the assay with SW-620 colon and with UACC-62 melanoma were 28700 nM, 41000 nM and 32000 nM, respectively.

With `COc1cc2ccc(C(=O)O)cc2cc1OC`, the TGI with A549 NSCLC, with EKVX NSCLC, in the assay with M14 melanoma, in the assay on NCI-H23 lung, in the assay on NCI-H460 lung and in the assay on NCI-H522 lung was greater than 100000 nM in each case. Moreover, the TGI in the assay on RXF 393 renal, in the assay with SW-620 colon and in the assay on UACC-62 melanoma was greater than 100000 nM in each case.

`COc1cc2cc(C(=O)N3C[C@H](CCl)c4c3cc(O)c3ccccc43)[nH]c2c(OC)c1OC`: the GI50 in the assay on EKVX NSCLC was 139 nM; in the assay on M14 melanoma it was 26.8 nM; with NCI-H23 lung it was less than 10 nM; in the assay with NCI-H460 lung, less than 10 nM; in the assay with NCI-H522 lung, 10.4 nM; in the assay on SW-620 colon it was less than 10 nM. Moreover, the GI50 in the assay with UACC-62 melanoma is 35.1 nM. Also, the TGI with EKVX NSCLC was 953 nM and 641 nM; in the assay with HS 578T breast, 652 nM; with NCI-H23 lung, 234 nM and 92.7 nM; in the assay with NCI-H460 lung, 4340 nM and 23500 nM; in the assay on RXF 393 renal, 194 nM.
